Results as given in patent US20240327423A1, “A SERIES OF PYRROLE DERIVATIVES AND THEIR PREPARATION METHOD AND THERAPEUTIC USE” (SHENZHEN SUNGENING BIO-MEDICAL CO., LTD, priority 2020, published 2024).
Converted amounts (≈) assume the structure as drawn. Where two headings read alike, the source gives them in different places. Values belong to the compound of their own block, whether it stands above or below them.

How the values were obtained:
[1] = tested on: Aspergillus fumigatus (ATCC MYA-4609/AF293/CBS 101355); assay: Measurement of minimum inhibitory concentration (MIC), AF293; assay type: cell-based
Experimental: New streaks are made with glycerol stock solution of the strains of Aspergillus fumigatus (ATCC MYA-4609/AF 293/CBS 101355) on Sabouraud's dextrose agar (SDA), incubate at 35° C. and a humidity of 40-70% for 72 hours. Other strains are processed as the same as AF293.
RPMI1640: one packet of RPMI1640 powder is dissolved in 1 L purified water and mixed well, add 0.165M MOPS, adjust the pH to 7.0, sterilize by filtration with 0.22 um membrane, and store at 4° C. for no more than 3 months.
Physiological saline: weigh 9 g of sodium chloride powder and dissolve in 1 L of purified water, and mixed well. Sterilize at 121° C. for 30 min, store at room temperature (RT) for no more than 1 week.
Dissolve the test compound and stock solution of one control compound with DMSO and obtain solutions at a concentration of 12.8 mg/mL
The maximum concentration of each compound is 0.8 mg/mL (e.g., 150 μL of dimethyl sulfoxide+10 uL of 12.8 mg/mL compound/control). Column 1 is filled with 40 μL of compound and columns 2 to 11 with 20 μL of dimethyl sulfoxide. Transfer 20 μL of compound from column 1 to column 2 to dilute the concentration. Repeat the above steps up to column 11 to give 2× serial dilutions.
2 μL of the above 2× serial dilutions are injected into each hole of the corresponding test plate using a multichannel pipette.
Drop 5 ml of saline on the Aspergillus fumigatus SDA plate. The spores were carefully wiped off from the surface of the plate with an L-shaped coating rod. Then the suspension is transferred into a sterile tube. After shaking, let the tube stand for 5 to 10 minutes. Count the number of spores in the upper suspension with a hemocytometer and check the purity. Adjust the inoculum concentration to 0.2-2.5×10^4 spores/mL.
Inject 198 μL of diluted inoculum into each holes of the corresponding test plate using a multichannel pipette.
Incubate at 35° C. for 48 hours.
To facilitate scoring of the presence or absence of growth on the wall, a magnifying glass is used. The tested 96-well microplates were photographed and the optical density at 530 nm is read with an enzyme marker (Tecan Spark).

[2] = Liver microsomal stability test, mouse; assay type: in vitro ADME; conditions: Mouse liver microsomes
Experimental: (§1) • 1: Add 10 μL of working solutions of test product or reference product and 80 μL of microsomal working solution (liver microsomal protein concentration of 0.5 mg/mL) to wells of TO, T5, T10, T20, T30, T60, and NCF60, and only microsomal working solution is added to the Blank60 wells. Then the samples of Blank60, T10, T20, T30 and T60, except for TO and NCF60, are placed in a water bath set at 37° C. and incubate for approximately 10 mins; • 2: Add 300 μL of termination solution (acetonitrile solution containing 200 ng/mL tolbutamide and 200 ng/mL labetalol) to Sample TO, followed by 10 ul of NADPH regeneration system working solution; • 3: After incubation of Blank60, T5, T10, T20, T30 and T60 on incubation plates, add 10 μL of NADPH regeneration system working solution to each sample well to start the reaction, and 10 uL of 100 mM potassium phosphate buffer is add to the NCF60 sample wells; • 4: After incubation for appropriate times (e.g., 5, 10, 20, 30 and 60 mins), 300 μL of termination solution is add to each sample well of test product and reference product on Blank60, T5, T10, T20, T30, T60 and NCF60 plates, respectively, to terminate the reaction. • 5: All sample plates are shaken well and centrifuged at 4000 rpm for 20 min, take 100 μL of the supernatant of the test product or reference product, dilute in 300 μL of pure water for LC-MS/MS analysis, respectively. • 6: Data analysis, T½ and CLint(mic) (μL/min/mg) values are calculated based on the first-order elimination kinetics, and the equations of first-order elimination kinetics are: […]

[3] = Liver microsomal stability test, human; assay type: in vitro ADME; conditions: Human liver microsomes
Experimental: as §1

[4] = CBS101355, Aspergillus fumigatus AF293, 35° C., 48 hours, RPMI1640, read-out: AF293: MIC
[5] = 0.5 mg/mL protein, 37° C., NADPH

SMILES: Cc1cc(-c2ccccc2)c(C(=O)C(=O)Nc2cc(F)c3c(c2)OC[C@H]2CN(c4ncc(F)cn4)CCN32)n1C [Example 25, (R)-2-(1,5-dimethyl-3-phenyl-1H-pyrrol-2-yl)-N-(10-fluoro-3-(5-fluoropyrimidin-2-yl)-1,2,3,4,4a,5-hexahydrobenzo[b]pyrazino[1,2-d] [1,4]oxazin-8-yl)-2-oxoacetamide]
MIC ([1]; Aspergillus fumigatus, CBS101355, 48 h, read-out: AF293: MIC, Aspergillus fumigatus AF293, 35° C., 48 hours, RPMI1640): 0.06 µg/mL (≈ 0.11 µM)

SMILES: Cc1cc(-c2ccccc2)c(C(=O)C(=O)Nc2ccc3c(c2)COC[C@@H]2CN(c4ncc(F)cn4)CCN32)n1C [Example 27]
MIC [1, 4]: 0.03 µg/mL (≈ 0.0555 µM)

SMILES: Cc1cc(-c2ccccc2)c(C(=O)C(=O)Nc2ccc3c(c2)OC[C@H]2CN(c4ncncn4)CCN32)n1C [Example 28, (R)—N-(3-(1,3,5-triazin-2-yl)-1,2,3,4,4a,5-hexahydrobenzo[b]pyrazino[1,2-d] [1,4]oxazin-8-yl)-2-(1,5-dimethyl-3-phenyl-1H-pyrrol-2-yl)-2-oxoacetamide]
MIC [1, 4]: 0.25 µg/mL (≈ 0.491 µM)

SMILES: Cc1cc(-c2ccccc2)c(C(=O)C(=O)Nc2ccc3c(c2)CN(C)CC2CN(c4ncc(F)cn4)CCN32)n1C (centres unmarked) [Example 31]
AF293: MIC ([1]; Aspergillus fumigatus AF293, 35° C., 48 hours, RPMI1640): 1 µg/mL

SMILES: Cc1cc(-c2cccc(F)c2)c(C(=O)C(=O)Nc2ccc3c(c2)OC[C@H]2CN(c4ncc(F)cn4)CCN32)n1C [Example 36, (R)-2-(3-(3-fluorophenyl)-1,5-dimethyl-1H-pyrrol-2-yl)-N-(3-(5-fluoropyrimidin-2-yl)-1,2,3,4,4a,5-hexahydrobenzo[b]pyrazino[1,2-d] [1,4]oxazin-8-yl)-2-oxoacetamide]
MIC [1, 4]: 0.016 µg/mL (≈ 0.0294 µM)

Further compounds by falling MIC [1, 4], results first:

MIC [1, 4]: 0.06 µg/mL (≈ 0.104 µM) | CLint scaled [2, 5]: 81.1 mL/min/kg | half-life [2, 5]: 30.7 min | Remaining, (T = 60 min) ([2]; 60 min): 24.0% | CLint scaled [3, 5]: 52.9 mL/min/kg | half-life [3, 5]: 23.6 min | Remaining, (T = 60 min) ([3]; 60 min): 16.5%
SMILES: Cc1cc(-c2ccccc2)c(C(=O)C(=O)Nc2ccc3c(c2)OCC2CN(c4ncc(C(F)(F)F)cn4)CCN32)n1C (centres unmarked) [Example 9]

MIC [1, 4]: 0.03 µg/mL (≈ 0.0555 µM)
SMILES: Cc1cc(-c2ccccc2)c(C(=O)C(=O)Nc2ccc3c(c2)COC[C@H]2CN(c4ncc(F)cn4)CCN32)n1C [Example 26]

MIC [1, 4]: 0.016 µg/mL (≈ 0.0294 µM)
SMILES: Cc1cc(-c2ccc(F)cc2)c(C(=O)C(=O)Nc2ccc3c(c2)OC[C@H]2CN(c4ncc(F)cn4)CCN32)n1C [Example 37, (R)-2-(3-(4-fluorophenyl)-1,5-dimethyl-1H-pyrrol-2-yl)-N-(3-(5-fluoropyrimidin-2-yl)-1,2,3,4,4a,5-hexahydrobenzo[b]pyrazino[1,2-d] [1,4]oxazin-8-yl)-2-oxoacetamide]
